## CNC(=O)c1cc(Oc2ccc(NC(=O)Nc3ccc(Cl)c(C(F)(F)F)c3)cc2)cc[n+]1[O-] [Example 1, N-[4-chloro-3-(trifluoromethyl)phenyl]-N′-{4-[2-(N-methylcarbamoyl)-1-oxo-(4-pyridyloxy)]phenyl}urea]
  melting point: 232 to 234 °C

Source: patent US9181188B2, “Aryl ureas as kinase inhibitors” (Bayer Healthcare LLC, priority 2002, dated 2015)
